Measured values from patent publication US11117900B2 (Vertex Pharmaceuticals Incorporated, priority 2012, dated 2021).

system: HCT116 colorectal cancer cells; assay: Cisplatin sensitization assay (96 h MTS cell viability); type: cell-based; details: Cisplatin sensitization value;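 note: compound concentration needed to lower the IC50 of Cisplatin alone by a set fold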
How it was run: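 HCT116 cells were dosed simultaneously with compound and cisplatin as a full matrix of 2-fold serial dilutions from 10 μM top final concentration. Incubation was 96 h at 37° C., 5% CO2, followed by 1 h with MTS reagent for the viability read-out. Sensitization values were binned into +++, ++ and + categories.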

| SMILES | Cisplatin Sensitization Assay |
| --- | --- |
| CN1CCN(C2CCN(c3ccncc3NC(=O)c3c(N)nn4cc(Cl)cnc34)CC2)CC1 [I-N-97, 2-amino-6-chloro-N-(4-(4-(4-methylpiperazin-1-yl)piperidin-1-yl)pyridin-3-yl)pyrazolo[1,5-a]pyrimidine-3-carboxamide] | +++ (Compounds with a Cisplatin sensitization value of <0.02 μM are marked with “+++.”) |
| CC(C)(C#N)c1cnc2c(C(=O)Nc3cncc(F)c3N3CCN(C4COC4)CC3)c(N)nn2c1 [I-N-144] | +++ (Compounds with a Cisplatin sensitization value of <0.02 μM are marked with “+++.”) |
| Nc1nn2cc(F)cnc2c1C(=O)Nc1cnccc1N1CCC(S(=O)(=O)N2CCN3CCC2CC3)CC1 [I-N-196, N-(4-(4-(1,4-diazabicyclo[3.2.2]nonan-4-ylsulfonyl)piperidin-1-yl)pyridin-3-yl)-2-amino-6-fluoropyrazolo[1,5-a]pyrimidine-3-carboxamide] | +++ (Compounds with a Cisplatin sensitization value of <0.02 μM are marked with “+++.”) |
| N#CCc1cnc2c(C(=O)Nc3cnccc3N3CCOCC3)c(N)nn2c1 [I-N-81, 2-amino-6-(cyanomethyl)-N-(4-morpholinopyridin-3-yl)pyrazolo[1,5-a]pyrimidine-3-carboxamide] | +++ (Compounds with a Cisplatin sensitization value of <0.02 μM are marked with “+++.”) |
| CN1CCN(CC2CCN(c3c(F)cncc3NC(=O)c3c(N)nn4cc(C5(C#N)CC5)cnc34)CC2)CC1 [I-N-192, 2-amino-6-(1-cyanocyclopropyl)-N-(5-fluoro-4-(4-((4-methylpiperazin-1-yl)methyl)piperidin-1-yl)pyridin-3-yl)pyrazolo[1,5-a]pyrimidine-3-carboxamide] | +++ (Compounds with a Cisplatin sensitization value of <0.02 μM are marked with “+++.”) |
| N#CCc1cnc2c(C(=O)Nc3cnccc3OCCO)c(N)nn2c1 [I-O-33, 2-amino-6-(cyanomethyl)-N-(4-(2-hydroxyethoxy)pyridin-3-yl)pyrazolo[1,5-a]pyrimidine-3-carboxamide] | ++ (Compounds with a Cisplatin sensitization value >0.02 μM but <0.2 μM are marked with “++.”) |
| CN1CC2CN(c3c(Cl)cncc3NC(=O)c3c(N)nn4cc(F)cnc34)CC2C1 (stereo not drawn) [I-N-286, 2-amino-N-(5-chloro-4-(5-methylhexahydropyrrolo[3,4-c]pyrrol-2(1H)-yl)pyridin-3-yl)-6-fluoropyrazolo[1,5-a]pyrimidine-3-carboxamide] | ++ (Compounds with a Cisplatin sensitization value >0.02 μM but <0.2 μM are marked with “++.”) |
| NCC1CCN(c2ccncc2NC(=O)c2c(N)nn3cc(Cl)cnc23)CC1 [I-N-91, 2-amino-N-(4-(4-(aminomethyl)piperidin-1-yl)pyridin-3-yl)-6-chloropyrazolo[1,5-a]pyrimidine-3-carboxamide] | ++ (Compounds with a Cisplatin sensitization value >0.02 μM but <0.2 μM are marked with “++.”) |
| Nc1nn2cc(F)cnc2c1C(=O)Nc1cncc(F)c1N1CCC(C(=O)N2CCC(N3CCCCC3)C2)CC1 (stereo not drawn) [I-G-64, 2-amino-6-fluoro-N-(5-fluoro-4-(4-(3-(piperidin-1-yl)pyrrolidine-1-carbonyl)piperidin-1-yl)pyridin-3-yl)pyrazolo[1,5-a]pyrimidine-3-carboxamide] | +++ (Compounds with a Cisplatin sensitization value of <0.02 μM are marked with “+++.”) |
| Nc1nn2cc(F)cnc2c1C(=O)Nc1cncc(F)c1N1CCC(CN2CCCC2=O)CC1 [I-N-213, 2-amino-6-fluoro-N-(5-fluoro-4-(4-((2-oxopyrrolidin-1-yl)methyl)piperidin-1-yl)pyridin-3-yl)pyrazolo[1,5-a]pyrimidine-3-carboxamide] | +++ (Compounds with a Cisplatin sensitization value of <0.02 μM are marked with “+++.”) |
| Nc1nn2cc(F)cnc2c1C(=O)Nc1cncc(F)c1N1CCC(C(=O)O)CC1 [I-N-92, 1-(3-(2-amino-6-fluoropyrazolo[1,5-a]pyrimidine-3-carboxamido)-5-fluoropyridin-4-yl)piperidine-4-carboxylic acid] | + (Compounds with a Cisplatin sensitization value >0.2 μM but <5 μM are marked with “+.”) |
| N#CCc1cnc2c(C(=O)Nc3cnccc3N3CCCC3)c(N)nn2c1 [I-N-77, 2-amino-6-(cyanomethyl)-N-(4-(pyrrolidin-1-yl)pyridin-3-yl)pyrazolo[1,5-a]pyrimidine-3-carboxamide] | + (Compounds with a Cisplatin sensitization value >0.2 μM but <5 μM are marked with “+.”) |
| CN1CCN(c2c(Cl)cncc2NC(=O)c2c(N)nn3cc(F)cnc23)CC1 [I-N-85, 2-amino-N-(5-chloro-4-(4-methylpiperazin-1-yl)pyridin-3-yl)-6-fluoropyrazolo[1,5-a]pyrimidine-3-carboxamide] | ++ (Compounds with a Cisplatin sensitization value >0.02 μM but <0.2 μM are marked with “++.”) |
| Nc1nn2cc(F)cnc2c1C(=O)Nc1cnccc1-c1ccc(C(=O)N2CCN3CCC2CC3)cc1F [I-C-50, N-(4-(4-(1,4-diazabicyclo[3.2.2]nonane-4-carbonyl)-2-fluorophenyl)pyridin-3-yl)-2-amino-6-fluoropyrazolo[1,5-a]pyrimidine-3-carboxamide] | +++ (Compounds with a Cisplatin sensitization value of <0.02 μM are marked with “+++.”) |
| CN1CCN(c2ccncc2NC(=O)c2c(N)nn3cc(F)cnc23)CC1=O [I-N-209, 2-amino-6-fluoro-N-(4-(4-methyl-3-oxopiperazin-1-yl)pyridin-3-yl)pyrazolo[1,5-a]pyrimidine-3-carboxamide] | +++ (Compounds with a Cisplatin sensitization value of <0.02 μM are marked with “+++.”) |
| Nc1nn2cc(F)cnc2c1C(=O)Nc1cncc(F)c1N1CCC(C(=O)N2CC(F)(F)C2)CC1 [I-G-73, 2-amino-N-(4-(4-(3,3-difluoroazetidine-1-carbonyl)piperidin-1-yl)-5-fluoropyridin-3-yl)-6-fluoropyrazolo[1,5-a]pyrimidine-3-carboxamide] | +++ (Compounds with a Cisplatin sensitization value of <0.02 μM are marked with “+++.”) |
| Nc1nn2cc(Cl)cnc2c1C(=O)Nc1cnccc1N1CCN(C2CC2)CC1 [I-N-64, 2-amino-6-chloro-N-(4-(4-cyclopropylpiperazin-1-yl)pyridin-3-yl)pyrazolo[1,5-a]pyrimidine-3-carboxamide] | +++ (Compounds with a Cisplatin sensitization value of <0.02 μM are marked with “+++.”) |
| Nc1nn2cc(Cl)cnc2c1C(=O)Nc1cnccc1N1CCC(N2CC(F)(F)C2)CC1 [I-N-108, 2-amino-6-chloro-N-(4-(4-(3,3-difluoroazetidin-1-yl)piperidin-1-yl)pyridin-3-yl)pyrazolo[1,5-a]pyrimidine-3-carboxamide] | +++ (Compounds with a Cisplatin sensitization value of <0.02 μM are marked with “+++.”) |
| COC(=O)N1CCN(c2c(F)cncc2NC(=O)c2c(N)nn3cc(F)cnc23)CC1 [I-N-261, methyl-4-(3-(2-amino-6-fluoropyrazolo[1,5-a]pyrimidine-3-carboxamido)-5-fluoropyridin-4-yl)piperazine-1-carboxylate] | +++ (Compounds with a Cisplatin sensitization value of <0.02 μM are marked with “+++.”) |
| CN1CCN(c2ccncc2NC(=O)c2c(N)nn3cc(F)cnc23)CC12CCOCC2 [I-N-133, 2-amino-6-fluoro-N-(4-(1-methyl-9-oxa-1,4-diazaspiro[5.5]undecan-4-yl)pyridin-3-yl)pyrazolo[1,5-a]pyrimidine-3-carboxamide] | ++ (Compounds with a Cisplatin sensitization value >0.02 μM but <0.2 μM are marked with “++.”) |
| Cc1cccnc1-c1ccncc1NC(=O)c1c(N)nn2cc(F)cnc12 [I-C-36, 2-amino-6-fluoro-N-(3-methyl-[2,4′-bipyridin]-3′-yl)pyrazolo[1,5-a]pyrimidine-3-carboxamide] | +++ (Compounds with a Cisplatin sensitization value of <0.02 μM are marked with “+++.”) |
| CN(C)CCCNC(=O)C1CCN(c2c(F)cncc2NC(=O)c2c(N)nn3cc(F)cnc23)CC1 [I-G-26, 2-amino-N-(4-(4-((3-(dimethylamino)propyl)carbamoyl)piperidin-1-yl)-5-fluoropyridin-3-yl)-6-fluoropyrazolo[1,5-a]pyrimidine-3-carboxamide] | ++ (Compounds with a Cisplatin sensitization value >0.02 μM but <0.2 μM are marked with “++.”) |
| COCCN1CCN(c2c(F)cncc2NC(=O)c2c(N)nn3cc(F)cnc23)CC1 [I-N-127, 2-amino-6-fluoro-N-(5-fluoro-4-(4-(2-methoxyethyl)piperazin-1-yl)pyridin-3-yl)pyrazolo[1,5-a]pyrimidine-3-carboxamide] | +++ (Compounds with a Cisplatin sensitization value of <0.02 μM are marked with “+++.”) |
| COc1ccc(-c2ccncc2NC(=O)c2c(N)nn3cc(F)cnc23)cn1 [I-C-27, 2-amino-6-fluoro-N-(6-methoxy-[3,4′-bipyridin]-3′-yl)pyrazolo[1,5-a]pyrimidine-3-carboxamide] | ++ (Compounds with a Cisplatin sensitization value >0.02 μM but <0.2 μM are marked with “++.”) |
| CCN1CCCC1C(=O)N1CCN(c2c(F)cncc2NC(=O)c2c(N)nn3cc(F)cnc23)CC1 (stereo not drawn) [I-N-185, 2-amino-N-(4-(4-(1-ethylpyrrolidine-2-carbonyl)piperazin-1-yl)-5-fluoropyridin-3-yl)-6-fluoropyrazolo[1,5-a]pyrimidine-3-carboxamide] | ++ (Compounds with a Cisplatin sensitization value >0.02 μM but <0.2 μM are marked with “++.”) |
| Nc1nn2cc(F)cnc2c1C(=O)Nc1cncc(F)c1N1CCN(C(=O)C23CCN(CC2)CC3)CC1 [I-N-134, 2-amino-6-fluoro-N-(5-fluoro-4-(4-(quinuclidine-4-carbonyl)piperazin-1-yl)pyridin-3-yl)pyrazolo[1,5-a]pyrimidine-3-carboxamide] | + (Compounds with a Cisplatin sensitization value >0.2 μM but <5 μM are marked with “+.”) |
| COCCOc1ccncc1NC(=O)c1c(N)nn2cc(CC#N)cnc12 [I-O-29, 2-amino-6-(cyanomethyl)-N-(4-(2-methoxyethoxy)pyridin-3-yl)pyrazolo[1,5-a]pyrimidine-3-carboxamide] | +++ (Compounds with a Cisplatin sensitization value of <0.02 μM are marked with “+++.”) |
